Where two headings read alike, the source gives them in different places.
Target: T1, SFRP-1 (Homo sapiens, UniProt Q8N474)
T1 sequence (Q8N474 32-314): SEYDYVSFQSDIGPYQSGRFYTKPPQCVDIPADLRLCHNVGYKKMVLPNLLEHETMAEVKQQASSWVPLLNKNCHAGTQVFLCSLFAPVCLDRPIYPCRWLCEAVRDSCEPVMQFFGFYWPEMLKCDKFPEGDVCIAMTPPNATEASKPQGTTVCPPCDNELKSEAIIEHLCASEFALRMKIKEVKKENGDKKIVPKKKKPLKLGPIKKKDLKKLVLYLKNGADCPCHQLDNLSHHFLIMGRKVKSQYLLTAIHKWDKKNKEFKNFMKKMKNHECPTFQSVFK
Assay: Cell-based assay for in vitro measurement of SFRP-1/SARP2 antagonist activity (U2OS cells co-transfected with 16x TCF-tk-Luciferase reporter, Wnt and hSFRP-1);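 note: U2OS cells co-transfected with a TCF-tk luciferase reporter, a Wnt vector, hSFRP-1 or empty vector and CMV-βgal, luciferase luminescence read in cell lysates alongside βgal activity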
Conditions: for fold induction at 15 µM / fold induction at 10 µM / fold induction at 30 µM / fold induction at 60 µM / fold induction at 20 µM: U2OS; for fold induction at 10 µM: read-out: Fold Induction with SFRP-1, U2OS cells, single dose 10 μM, luciferase reporter, fold induction over SFRP-1 control

[1] = read-out: Fold Induction with SFRP-1, Conc 15 μM, with SFRP-1, fold induction over SFRP-1 control, single dose
[2] = read-out: Fold Induction without SFRP-1, Conc 15 μM, without SFRP-1, single dose
[3] = read-out: Fold Induction with SFRP-1, Conc 15 μM, single dose, luciferase reporter, fold induction over SFRP-1 control, cells with SFRP-1
[4] = read-out: Fold Induction without SFRP-1, Conc 15 μM, single dose, luciferase reporter, cells without SFRP-1 (specificity control)
[5] = read-out: Fold Induction with SFRP-1, Conc 30 μM, with SFRP-1, fold induction over SFRP-1 control, single dose
[6] = read-out: Fold Induction without SFRP-1, Conc 30 μM, without SFRP-1, single dose

Compound | fold induction at 15 µM [1] | fold induction at 15 µM [2] | also measured
CC(C)(O)Cc1ccc(S(=O)(=O)c2ccccc2)cc1S(=O)(=O)NCCc1ccccc1 [Example 341, 2-(2-hydroxy-2-methylpropyl)-N-(2-phenylethyl)-5-(phenylsulfonyl)benzenesulfonamide] | 1.5 | 1.1 | –
CCc1ccc(S(=O)(=O)c2ccccc2)cc1S(=O)(=O)NC1CCOCC1 [Example 300, 2-ethyl-5-(phenylsulfonyl)-N-tetrahydro-2H-pyran-4-ylbenzenesulfonamide] | 3.4 | 1.2 | –
O=S(=O)(NCCc1ccc(Br)cc1)c1cc(S(=O)(=O)c2ccccc2)ccc1C(F)(F)F [Example 960, N-[2-(4-bromophenyl)ethyl]-5-(phenylsulfonyl)-2-(trifluoromethyl)benzenesulfonamide] | – | – | fold induction at 10 µM: 1.4
CN(CCc1ccccn1)S(=O)(=O)c1cc(S(=O)(=O)c2ccccc2)ccc1Cl [Example 646, 2-chloro-N-methyl-5-(phenylsulfonyl)-N-(2-pyridin-2-ylethyl)benzenesulfonamide] | – | – | fold induction at 15 µM [3]: 1; fold induction at 15 µM [4]: 1.1
Cc1ccc(S(=O)(=O)NCCCn2ccnc2)cc1S(=O)(=O)c1ccccc1 [Example 317, N-[3-(1H-imidazol-1-yl)propyl]-4-methyl-3-(phenylsulfonyl)benzenesulfonamide] | 1.2 | 1.1 | –
Cc1ccc(S(=O)(=O)c2ccc(F)cc2)cc1S(=O)(=O)NC[C@@H](C)c1ccccc1 [Example 261, 5-[(4-fluorophenyl)sulfonyl]-2-methyl-N-[(2S)-2-phenylpropyl]benzenesulfonamide] | 1.4 | 0.9 | –
COc1ccccc1CCNS(=O)(=O)c1cc(S(=O)(=O)c2ccc(C)cc2)ccc1C [Example 118, N-[2-(2-methoxyphenyl)ethyl]-2-methyl-5-[(4-methylphenyl)sulfonyl]benzenesulfonamide] | – | – | fold induction at 30 µM [5]: 1.3; fold induction at 30 µM [6]: 0.5
Cc1ccc(S(=O)(=O)c2ccccc2)cc1S(=O)(=O)N1CCN(CCN2CCOCC2)CC1 [Example 281, 4-[2-(4-{[2-methyl-5-(phenylsulfonyl)phenyl]sulfonyl}piperazin-1-yl)ethyl]morpholine] | 2.8 | 1.3 | –
Cc1ccc(S(=O)(=O)c2ccc(F)cc2)cc1S(=O)(=O)NCCCN1CCCC1 [Example 178, 5-[(4-fluorophenyl)sulfonyl]-2-methyl-N-(3-pyrrolidin-1-ylpropyl)benzenesulfonamide] | 2.8 | 1.5 | –
Cc1ccc(S(=O)(=O)NCCCn2ccnc2)cc1[S+]([O-])c1ccccc1 (centres unmarked) [Example 306, N-[3-(1H-imidazol-1-yl)propyl]-4-methyl-3-(phenylsulfinyl)benzenesulfonamide] | – | – | fold induction at 60 µM (read-out: Fold Induction with SFRP-1, Conc 60 μM, with SFRP-1, fold induction over SFRP-1 control, single dose): 1.3; fold induction at 60 µM (read-out: Fold Induction without SFRP-1, Conc 60 μM, without SFRP-1, single dose): 0.9
Cc1cc(C)c(S(=O)(=O)c2ccccc2)cc1S(=O)(=O)NCCCn1ccnc1 [Example 325, N-[3-(1H-imidazol-1-yl)propyl]-2,4-dimethyl-5-(phenylsulfonyl)benzenesulfonamide] | 3 | 1.1 | –
CC(C)(CO)NS(=O)(=O)c1cc(S(=O)(=O)c2ccccc2)ccc1Cl [Example 655, 2-chloro-N-(2-hydroxy-1,1-dimethylethyl)-5-(phenylsulfonyl)benzenesulfonamide] | – | – | fold induction at 10 µM: 1.1
Cc1ccc(S(=O)(=O)c2ccc(F)cc2)cc1S(=O)(=O)NCCN(C)C [Example 172, N-[2-(dimethylamino)ethyl]-5-[(4-fluorophenyl)sulfonyl]-2-methylbenzenesulfonamide] | 1.9 | 1.1 | –
CCOc1cc(CCNS(=O)(=O)c2cc(S(=O)(=O)c3ccccc3)ccc2C)ccc1OC [Example 54, N-[2-(3-ethoxy-4-methoxyphenyl)ethyl]-2-methyl-5-(phenylsulfonyl)benzenesulfonamide] | – | – | Fold Induction with SFRP-1 (Conc 30 μM, with SFRP-1, fold induction over SFRP-1 control, single dose): 3.6 fold; fold induction at 30 µM [5]: 3.8; fold induction at 30 µM [6]: 1.1
Cc1cc(S(=O)(=O)c2ccccc2)cc(S(=O)(=O)NCCc2ccccn2)c1C [Example 349, 2,3-dimethyl-5-(phenylsulfonyl)-N-(2-pyridin-2-ylethyl)benzenesulfonamide] | 2 | 1.2 | –
COc1ccc(CCN(C)S(=O)(=O)c2cc(S(=O)(=O)c3ccccc3)ccc2C)cc1OC [Example 272, N-[2-(3,4-dimethoxyphenyl)ethyl]-N,2-dimethyl-5-(phenylsulfonyl)benzenesulfonamide] | 0.9 | 1 | –
Cc1ccc(S(=O)(=O)c2ccoc2C)cc1S(=O)(=O)NCCCn1ccnc1 [Example 363, N-[3-(1H-imidazol-1-yl)propyl]-2-methyl-5-[(2-methyl-3-furyl)sulfonyl]benzenesulfonamide] | 2.1 | 1.1 | –
Cc1ccc(S(=O)(=O)c2ccc(F)cc2)cc1S(=O)(=O)NC1Cc2ccccc2C1 [Example 249, N-2,3-dihydro-1H-inden-2-yl-5-[(4-fluorophenyl)sulfonyl]-2-methylbenzenesulfonamide] | – | – | fold induction at 20 µM (read-out: Fold Induction with SFRP-1, Conc 20 μM, with SFRP-1, fold induction over SFRP-1 control, single dose): 1.9; fold induction at 20 µM (read-out: Fold Induction without SFRP-1, Conc 20 μM, without SFRP-1, single dose): 0.8
COC(=O)CCNS(=O)(=O)c1cc(S(=O)(=O)c2ccccc2)ccc1OC [Example 233, methyl N-{[2-methoxy-5-(phenylsulfonyl)phenyl]sulfonyl}-beta-alaninate] | 1.5 | 1 | –
CCc1ccc(S(=O)(=O)c2ccccc2)cc1S(=O)(=O)N[C@H]1C[C@@H]1c1ccccc1 [Example 267, 2-ethyl-N-[(1S,2R)-2-phenylcyclopropyl]-5-(phenylsulfonyl)benzenesulfonamide] | 2 | 1.2 | –
Cc1c(S(=O)(=O)NCCN2CCOCC2)cccc1S(=O)(=O)c1ccccc1 [Example 495, 2-methyl-N-(2-morpholin-4-ylethyl)-3-(phenylsulfonyl)benzenesulfonamide] | – | – | fold induction at 15 µM [3]: 1.1; fold induction at 15 µM [4]: 1.3
O=S(=O)(NC1CCNCC1)c1cc(S(=O)(=O)c2ccccc2)ccc1Cl [Example 624, 2-chloro-5-(phenylsulfonyl)-N-piperidin-4-ylbenzenesulfonamide] | – | – | fold induction at 15 µM [3]: 2.7; fold induction at 15 µM [4]: 1.2
O=S(=O)(NCCc1ccccn1)c1cccc(S(=O)(=O)c2ccccc2)c1 [Example 184, 3-(phenylsulfonyl)-N-(2-pyridin-2-ylethyl)benzenesulfonamide] | – | – | fold induction at 30 µM [5]: 1.2; fold induction at 30 µM [6]: 0.9

The next lines start with results.

fold induction at 15 µM [1] | fold induction at 15 µM [2] | Compound | also measured
1.5 | 1.1 | Cc1cc(C)c(S(=O)(=O)c2ccccc2)cc1S(=O)(=O)NCC(O)c1ccccc1 (centres unmarked) [Example 389, N-(2-hydroxy-2-phenylethyl)-2,4-dimethyl-5-(phenylsulfonyl)benzenesulfonamide] | –
0.5 | 0.6 | CC(=O)c1ccc(S(=O)(=O)c2ccc(C)c(S(=O)(=O)NC3CCOCC3)c2)cc1 [Example 380, 5-[(4-acetylphenyl)sulfonyl]-2-methyl-N-(tetrahydro-2H-pyran-4-yl)benzenesulfonamide] | –
1.2 | 1.1 | Cc1ccc(S(=O)(=O)c2ccccc2)cc1S(=O)(=O)NC(C)(C)CO [Example 404, N-(2-hydroxy-1,1-dimethylethyl)-2-methyl-5-(phenylsulfonyl)benzenesulfonamide] | –
1.7 | 1.1 | Cc1ccc(S(=O)(=O)c2ccccn2)cc1S(=O)(=O)NCCCn1ccnc1 [Example 378, N-[3-(1H-imidazol-1-yl)propyl]-2-methyl-5-(pyridin-2-ylsulfonyl)benzenesulfonamide] | –
1.5 | 0.9 | Cc1ccc(S(=O)(=O)c2ccc(NCc3ccc(C(F)(F)F)cc3)cc2)cc1S(=O)(=O)NCCCn1ccnc1 [Example 374, N-[3-(1H-imidazol-1-yl)propyl]-2-methyl-5-[(4-{[4-(trifluoromethyl)benzyl]amino}phenyl)sulfonyl]benzenesulfonamide] | –
1.4 | 1 | Cc1ccc(S(=O)(=O)c2ccccc2)cc1S(=O)(=O)NCC(C)(C)C [Example 396, N-(2,2-dimethylpropyl)-2-methyl-5-(phenylsulfonyl)benzenesulfonamide] | –
2.1 | 1.1 | Cc1ccc(S(=O)(=O)c2cccc(-c3ccccc3)c2)cc1S(=O)(=O)NCCc1ccccn1 [Example 434, 5-(biphenyl-3-ylsulfonyl)-2-methyl-N-(2-pyridin-2-ylethyl)benzenesulfonamide] | –
